Reference: US8778871B2 (Takeda Pharmaceutical Company Limited, priority 2004, dated 2014)
Non-standard residues stand in square brackets, D forms with d. No end group written: not given here. Arg(Me) = CNC(=N)NCCC[C@H](N)C(=O)O; azaGly = NNC(=O)O

Columns and labels:
[1] = molecular target: T1, hOT7T175 (Homo sapiens, UniProt Q969F8, L364H); assay: Intracellular Ca ion level-increasing activity using FLIPR (180 seconds; specific activity to Metastin (1-54)); format: cell-based; conditions: hOT7T175/CHO, relative to Metastin (1-54) = 1
T1 construct: expressed in transfected cells

[2] = molecular target: T1, hOT7T175; format: cell-based; conditions: hOT7T175/CHO, FLIPR, evaluation for 40 seconds after initiation of the reaction
Protocol: The intracellular Ca ion level-increasing activity was measured using FLIPR as in TEST EXAMPLE 2.

[3] = Blood testosterone level decreasing effect in mature male rat (2 mM peptide solution, ALZET osmotic pump); format: in vivo; conditions: 2 mM peptide solution in distilled water, ALZET osmotic pump s.c., 6 days, Tables 28 and 29
Protocol: (§1) This peptide solution was filled in 5 ALZET osmotic pumps (Model 2001, 0.2 ml in volume, release rate: 0.001 ml/hr, DURECT Corporation). The ALZET pumps filled with the peptide solution were implanted subcutaneously in 5 CD(SD)IGS male rats of 9 weeks old after birth (Charles River Japan, Inc.) on the back under ether anesthesia by one pump for one animal. For negative control, distilled water (Otsuka Pharmaceutical Co., Ltd.) was filled in 5 ALZET osmotic pumps, which were similarly implanted in 5 male CD(SD)IGS rats (Charles River Japan, Inc.), respectively. These pump-implanted rats were fed for 6 days under normal feeding conditions. After weighing, the animal was decapitated to collect blood. After 0.03 ml/ml blood of aprotinin solution (Trasylol, Bayer) containing 0.1 mg/ml EDTA.2Na was added to blood, the mixture was centrifuged at 1,800 G for 25 minutes to isolate/recover plasma. From the plasma obtained, 0.05 ml was applied to radioimmunoassay (DPC.Total Testosterone Kit, Diagnostic Products Corporation) to measure the plasma testosterone level of each rat. The value below the limit of measurement (0.04 ng/ml of plasma level) in radioimmunoassay was treated as 0. A mean value of the testosterone levels from 5 rats receiving the peptide was calculated and a relative value (percent) of the mean value to a mean value from 5 rats receiving distilled water.

[4] = molecular target: T2, hOT7T175 (Homo sapiens, UniProt Q969F8); assay: Intracellular Ca ion level-increasing activity using FLIPR (180 seconds; specific activity to Metastin (1-54)); format: cell-based; conditions: hOT7T175/CHO, change in intracellular calcium ion level for 180 seconds, Tables 21-23
T2 construct: expressed in transfected cells

[5] = Blood testosterone level decreasing effect in mature male rat (0.1 mM peptide solution); format: in vivo
Protocol: as §1
In a manner similar to TEST EXAMPLE 14, evaluation was made using 0.1 mM peptide solution and a part of the results obtained are shown in TABLE 30.

T2 sequence (Q969F8 whole entry L364H): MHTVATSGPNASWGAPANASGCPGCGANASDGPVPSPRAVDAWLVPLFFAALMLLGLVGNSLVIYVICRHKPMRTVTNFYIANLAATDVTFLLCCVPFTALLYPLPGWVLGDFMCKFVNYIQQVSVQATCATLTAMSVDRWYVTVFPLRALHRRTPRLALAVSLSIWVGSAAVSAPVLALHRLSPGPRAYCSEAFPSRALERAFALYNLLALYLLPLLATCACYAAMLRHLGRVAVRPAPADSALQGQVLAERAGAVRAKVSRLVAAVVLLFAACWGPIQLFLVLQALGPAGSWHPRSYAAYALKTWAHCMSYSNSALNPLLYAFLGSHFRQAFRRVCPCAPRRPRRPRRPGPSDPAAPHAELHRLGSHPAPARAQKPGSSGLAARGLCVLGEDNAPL
T1 sequence (Q969F8 whole entry L364H): as above

Compound: CC(C)C[C@H](NC(=O)NNC(=O)[C@H](Cc1ccccc1)NC(=O)[C@H](CO)NC(=O)[C@H](CC(N)=O)NC(=O)[C@H](Cc1c[nH]c2ccccc12)NC(=O)[C@H](CC(N)=O)NC(=O)[C@@H](N)Cc1ccc(O)cc1)C(=O)N[C@@H](CCCNC(=N)N)C(=O)N[C@@H](Cc1ccccc1)C(N)=O [Compound No. 176, Tyr-Asn-Trp-Asn-Ser-Phe-AzaGly-Leu-Arg-Phe-NH2]
- Specific Act. (intracellular Ca ion level-increasing activity, specific activity to Metastin (1-54)) [1]: 5
- Specific Act. (EC50/MS10 EC50) [2]: 1.3
- Teststerone level in Blood [3]: 12%

Compound: D-Tyr-D-Pya(4)-Asn-Ser-Phe-AzaGly-Leu-Arg(Me)-Trp-NH2 [Compound No. 385]
- intracellular Ca ion level-increasing activity [specific activity to Metastin (1-54)] [4]: 10
- Specific Act. (EC50/MS10 EC50) [2]: 0.7
- Teststerone level in Blood [5]: 33%
- Teststerone level in Blood [3]: 2%

Compound: [dY][dW]NTF[azaGly]L[Arg(Me)]W-NH2 [Compound No. 512]
- intracellular Ca ion level-increasing activity [specific activity to Metastin (1-54)] [4]: 30
- Specific Act. (EC50/MS10 EC50) [2]: 0.8
- Teststerone level in Blood [5]: 38%
- Teststerone level in Blood [3]: 2%

Compound: 3-Phenylpropionyl-Asn-Ser-Phe-AzaGly-Leu-Arg(Me)-Trp-NH2 [Compound No. 499]
- intracellular Ca ion level-increasing activity [specific activity to Metastin (1-54)] [4]: 10
- Specific Act. (EC50/MS10 EC50) [2]: 1.4
- Teststerone level in Blood [5]: 32%
- Teststerone level in Blood [3]: 2%
